Publication PMC6476928 (Frontiers in Pharmacology, 2019)

Assays:
kv2.1 = conditions: 5µM, X. laevis oocytes; cited from earlier work
Source text: Supplement Data_Sheet_1.docx, table 1: Supplementary Table 1.Activity of spider toxins on Kv2 and Kv4 channel subtypes Activities of spider toxins against different subtypes of Kv2 and Kv4 potassium channels are reported as IC50 (nanomolar) or as percentage of current inhibition at a single dose (nanomolar). Affinity (IC50) measurements | column: kv2.1 || Animal toxins target ion channels, and are thus valuable resources with potential therapeutic applications. The Kv4 subfamily from scorpion ([Maffie et al., 2013]; [Xie et al., 2014]) and spider venom ([Escoubas et al., 2002]; [Ebbinghaus et al., 2004]; [Yuan et al., 2007], [2012]; [DeSimone et al., 2009]) has a rich toxin pharmacology. HaTx, originally isolated from venom of the Chilean rose tarantula (Grammostola spatulata), inhibits Kv4.2 channels effectively, with similar affinity for Kv2.1 ([Swartz and MacKinnon, 1995]; [Swartz, 2007]). Other Kv4 channel inhibitors, Stromatoxin (ScTx1) fr ...

Kv4.2 V290A = target: T1, Kv4.2 V290A (Homo sapiens, UniProt Q9NZV8, V290A); assay: Patch clamp of Kv4.2 mutant V290A in HEK293T cells; type: cell-based
T1 construct: expressed in transfected cells; host or cells: HEK293T
T1 sequence (Q9NZV8 1-630 V290A): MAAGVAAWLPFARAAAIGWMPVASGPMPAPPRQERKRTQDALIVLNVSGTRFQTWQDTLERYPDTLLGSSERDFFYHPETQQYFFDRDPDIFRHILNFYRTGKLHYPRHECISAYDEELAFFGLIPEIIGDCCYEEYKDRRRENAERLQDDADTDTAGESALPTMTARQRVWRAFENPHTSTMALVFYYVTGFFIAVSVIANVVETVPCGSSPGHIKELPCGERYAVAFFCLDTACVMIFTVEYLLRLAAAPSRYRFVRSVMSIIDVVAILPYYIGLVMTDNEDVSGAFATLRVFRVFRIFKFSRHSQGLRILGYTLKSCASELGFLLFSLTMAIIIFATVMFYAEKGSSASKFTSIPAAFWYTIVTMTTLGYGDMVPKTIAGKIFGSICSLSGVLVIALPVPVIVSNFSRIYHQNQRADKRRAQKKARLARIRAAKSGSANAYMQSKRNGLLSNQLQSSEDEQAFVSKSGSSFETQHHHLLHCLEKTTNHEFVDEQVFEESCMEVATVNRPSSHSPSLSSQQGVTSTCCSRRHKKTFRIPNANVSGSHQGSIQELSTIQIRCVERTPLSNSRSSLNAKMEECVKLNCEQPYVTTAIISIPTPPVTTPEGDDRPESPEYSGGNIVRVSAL
T1 sequence (Q9NS61 1-270 partner): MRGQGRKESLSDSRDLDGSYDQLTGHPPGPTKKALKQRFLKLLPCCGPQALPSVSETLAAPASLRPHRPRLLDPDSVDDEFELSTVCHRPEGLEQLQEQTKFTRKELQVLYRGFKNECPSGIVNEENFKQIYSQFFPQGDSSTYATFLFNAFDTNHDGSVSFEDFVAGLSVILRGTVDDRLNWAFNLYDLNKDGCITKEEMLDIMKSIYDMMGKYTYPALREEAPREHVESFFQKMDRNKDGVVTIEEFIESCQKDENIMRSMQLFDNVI
Description: Human embryonic kidney cell line (HEK293T) was obtained from Shanghai Institute of Cell Biology, Chinese Academy of Sciences (Shanghai, China) and maintained with 5% CO2 at 37°C in DMEM supplemented with 10% heat-inactivated fetal calf and serum (FBS), penicillin (100 U/ml), and streptomycin (100 μg/ml). The WT/mutant Kv4.2 plasmids were transiently transfected into HEK293T by Lipofectamine^TM 2000 Reagent (Invitrogen), and the KChIP2 subunits were co-transfected with Kv4.2.
The extracellular buffer and pipette solution for AP, Ito, and Kv4.2 were used as follows.
Kv4.2 current, The pipette solution contained (mM) 140 KF, 5 ATP-2Na, 1 EGTA, and 10 HEPEs (pH = 7.4). […] The steady-state activation of Kv4.2 was measured with the holding potential −80 mV and applied from −80 mV to 70 mV (10-mV increments). Steady-state inactivation of Kv4.2 channel measured with a series of a 300-ms depolarizing test potential of 10 mV followed a 1000-ms prepulse at potentials ranging from −120 to +70 mV with a 5-mV increment.
Data were analyzed using the clampfit (Axon) and Origin 9 software programs. […] The steady-state activation relationship was measured using Boltzmann function (f(V) = 1/{1 + exp[−(V−V1/2)/k]}^4). Steady-state inactivation was measured using the Boltzmann function f(V) = 1/{1 + exp[−(V − V1/2)/k]}.

[1] = test system: A-type potassium channels in DRG cells; conditions: ref Zeng et al., 2008; read-out: IC50, block of A-type potassium channels in DRG cells; cited from earlier work
kv4.1 = conditions: 5µM, X. laevis oocytes; cited from earlier work
Source text: Supplement Data_Sheet_1.docx, table 1: Supplementary Table 1.Activity of spider toxins on Kv2 and Kv4 channel subtypes Activities of spider toxins against different subtypes of Kv2 and Kv4 potassium channels are reported as IC50 (nanomolar) or as percentage of current inhibition at a single dose (nanomolar). Affinity (IC50) measurements | column: kv4.1

[2] = test system: action potential of NRVMs; assay: Action potential recording in neonatal rat ventricular myocytes; type: cell-based; conditions: 100 nM JZTX-V
Source text: (§1) Neonatal rat ventricular myocytes cells were obtained from ventricles of neonatal Sprague–Dawley rats as previously reported ([Sung et al., 2012]; [Yan et al., 2018]). SD rats (Hunan SJA Laboratory Animal Co., Ltd., Changsha, China) were used according to the guidelines of the National Institutes of Health for Care and Use of Laboratory Animals. The experiments were approved by the Animal Care and Use Committee of Hunan Normal University.
The APs, Pipette solution contained (mM) 120 KCl, 1 MgCl2, 10 EGTA, 10 Hepes, and 3 MgATP (pH = 7.4). The extracellular buffer contained (mM) 140 NaCl, 5.4 KCl, 1.3 CaCl2, 0.5 MgCl2, 5 Hepes, and 5.5 glucose (pH = 7.4).
(§2) All data points are shown as mean SEM.

[3] = test system: Kv4.2 S1–S2 linker mutants; assay: Patch clamp of Kv4.2 S1–S2 linker alanine mutants in HEK293T cells; type: cell-based; conditions: all S1–S2 linker mutants, N = 5
Source text: as §2

Kv4.2 L277A = assay: Patch clamp of Kv4.2 mutant L277A in HEK293T cells; type: cell-based
Source text: as §2

Kv4.2 I275A = assay: Patch clamp of Kv4.2 mutant I275A in HEK293T cells; type: cell-based
Source text: as §2

Ito1 current of NRVMs = assay: Whole-cell patch clamp of Ito1 current in neonatal rat ventricular myocytes; type: cell-based; conditions: 100 nM JZTX-V, at 30 mV, holding potential −40 mV, N = 4, mean ± SEM
Source text: as §1
Ito currents, The Ca^2+-currents blocker CdCl2 (200-μmol/L) were used in external solutions. To generate Ito1 current, cells were held at −40 mV to inactivate the fast Na^+ current and then stepped to potentials of −40 mV to +60 mV in 10-mV increments.
as §2

For CC[C@H](C)[C@H](NC(=O)[C@@H](NC(=O)[C@H](CCCCN)NC(=O)[C@H](CCCNC(=N)N)NC(=O)[C@@H]1CSSC[C@@H]2NC(=O)[C@H](C)NC(=O)[C@H](CCCNC(=N)N)NC(=O)[C@H](CCCCN)NC(=O)[C@H](CO)NC(=O)[C@H](CC(=O)O)NC(=O)[C@@H]3CSSC[C@H](NC(=O)[C@H](CCCNC(=N)N)NC(=O)[C@H](CC(C)C)NC(=O)CNC(=O)[C@H](CCC(=O)O)NC(=O)[C@H](CSSC[C@H](NC(=O)[C@@H](N)Cc4ccc(O)cc4)C(=O)N[C@@H](CCC(N)=O)C(=O)N[C@@H](CCCCN)C(=O)N[C@@H](Cc4c[nH]c5ccccc45)C(=O)N[C@@H](CCSC)C(=O)N[C@@H](Cc4c[nH]c5ccccc45)C(=O)N[C@@H]([C@@H](C)O)C(=O)N3)NC2=O)C(=O)N[C@@H](CCCCN)C(=O)N[C@@H](CC(C)C)C(=O)N[C@@H](Cc2c[nH]c3ccccc23)C(=O)N1)[C@@H](C)CC)C(=O)O [JZTX-V, Jingzhaotoxin-V], the “percentage of current inhibition kv2.1” value (kv2.1) is given as 35% (5µM) O, the “reduction of sensitivity to the toxin vs WT Kv4.2” value (Kv4.2 V290A) is given as roughly 12 fold and the IC50 [1] is given as 52.3 nM. For the same compound, the “percentage of current inhibition kv4.1” value (kv4.1) was 25% (5µM) O, the “APD10 compared with vehicle-treated group” value ([2]; 1 Hz, N = 5) was 123.53 ± 4.23% and the “APD50 compared with vehicle-treated group” value ([2]; 1 Hz, N = 5) was 124.34 ± 3.17%. For the same compound, the “APD90 compared with vehicle-treated group” value ([2]; 1 Hz, N = 5) was 126.26 ± 3.23%, the “effect on APD10–50” value ([2]; N = 5) was “did not affect” and the “effect on APD50–90” value ([2]; N = 5) was “did not affect”. For the same compound, the APD10 after treatment ([2]; control 12 ± 1 ms) was 15 ± 1.7 ms, the APD50 after treatment ([2]; control 88 ± 6 ms) was 109 ± 8 ms and the APD90 after treatment ([2]; control 245 ± 7 ms) was 309 ± 10 ms. The “JZTX-V binding affinity for Kv4.2 S1–S2 linker alanine mutants” value [3] was “only a slight decrease”, the “increase of affinity for JZTX-V vs WT Kv4.2” value (Kv4.2 L277A) was roughly 20 fold and the “increase of affinity for JZTX-V vs WT Kv4.2” value (Kv4.2 I275A) was roughly 10 fold. For the same compound, the “inhibition of Ito1 current of NRVMs” value (Ito1 current of NRVMs) was 78 ± 4.32%.
